From patent US5840716A, “Phosphonate nucleotide compounds” (priority 1996, dated 1998)
Like-named read-outs stand apart in the source and are kept apart here.

Legend:
Hepatitis B virus (HBV) [1] = experiment: HBV growth inhibition: inhibition of cytoplasmic HBV-DNA synthesis in HB611 cells (Southern blotting); type: cell-based
Protocol: Inhibitory activity against the growth of Hepatitis B virus (HBV)
(§1) HBV growth inhibitory activities of the compounds of the present invention were measured by a conventional method (K. Ueda, et al., Virology, 169, pp.213-216, 1989). HB611 cells (2×10^4, recombinant human hepatocellular carcinoma cells producing HBV) were cultured in Dulbecco ME medium containing 10% fetal bovine serum, streptomycin (100 μg/ml), penicillin (100 IU/ml), and Geneteicin (trade name, the antibiotic manufactured by Life Technologies, Co., Ltd., 0.2 mg/ml) at 37° C. The medium was changed with fresh medium on the second day and fifth day of the culture, and then the medium was changed with a medium containing a test compound at a final concentration of […] after 8, 11, and 14 days of the culture. Total cellular DNAs were collected on the 17th day of the culture. Amounts of the HBV-DNAs in the cells were measured by the Southern blotting method, and concentrations achieving 50% inhibition of cytoplasmic HBV-DNA synthesis were determined. concentrations of compounds required for 50% extinction of HB611 cells were also determined.

[2] = Cytotoxicity: 50% extinction of HB611 cells; type: cell-based; conditions: human, read-out: 50% cytotoxic concentration against HB611 cells
Protocol: as §1

Hepatitis B virus (HBV) [3] = experiment: HBV growth inhibitory activity of mouse serum after oral administration (HB611 cells); type: cell-based; conditions: serum 5% (V/V) in HB611 cell medium
Protocol: HBV growth inhibitory activity of mouse serum after oral administration
Groups of mice each consisting of three mice were administered orally with a test compound at a single dose of 1 g/kg or 0.3 g/kg. Blood was collected 30 minutes after the administration, and serum was prepared. HB611 cells (2×10^4, recombinant human hepatocellular carcinoma cells producing HBV) were cultured in Dulbecco ME medium containing 10% fetal bovine serum, streptomycin (100 μg/ml), penicillin (100 IU/ml), and Geneteicin (trade name, the antibiotic manufactured by Life Technologies, Co., Ltd., 0.2 mg/ml) at 37° C. The medium was changed with fresh medium on the second day and fifth day of the culture, and then the medium was changed with a medium containing a test serum at a final concentration of 5% (V/V) after 8, 11, and 14 days of the culture. Total cellular DNAs were collected on the 17th day of the culture. Amounts of the HBV-DNAs in the cells were measured by the Southern blotting method, and rates of inhibition of cytoplasmic HBV-DNA synthesis were determined. As a reference, a similar test was carried out using PMEA.

[4] = tested on: herpes simplex type 1 virus (HSV-1); conditions: literature; cited from earlier work
[5] = tested on: herpes simplex type 2 virus (HSV-2); conditions: literature; cited from earlier work
[6] = tested on: human immunodeficiency virus (HIV); conditions: literature; cited from earlier work
[7] = tested on: human hepatitis B virus (HBV); conditions: literature; cited from earlier work
[8] = HB611 cells, compound in medium after 8, 11 and 14 days, DNA collected on 17th day, read-out: 50% inhibitory concentration against HBV-DNA synthesis
[9] = mouse serum 30 minutes after single oral dose of 0.3 g/kg

SMILES: Nc1nc(Sc2ccccc2)c2ncn(CCOCP(=O)(OCC(F)(F)F)OCC(F)(F)F)c2n1 [Compound No. 1, 2-amino-9-[2-[bis(2,2,2-trifluoroethyl)-phosphonylmethoxy]ethyl]-6-phenylthiopurine]
- IC50 (Hepatitis B virus (HBV) [1]; [8]): 0.01 µM
- CC50 [2]: > 1000 µM
- Inhibitory rate against HBV-DNA synthesis (Hepatitis B virus (HBV) [3]; [9]): 60.7%

SMILES: COc1ccccc1Sc1nc(N)nc2c1ncn2CCOCP(=O)(OCC(F)(F)F)OCC(F)(F)F [Compound No. 2, 2-amino-9-[2-[bis(2,2,2-trifluoroethyl)-phosphonylmethoxy]ethyl]-6-o-methoxyphenylthiopurine]
- IC50 (Hepatitis B virus (HBV) [1]; [8]): 0.08 µM
- CC50 [2]: > 1000 µM

SMILES: COc1ccc(Sc2nc(N)nc3c2ncn3CCOCP(=O)(OCC(F)(F)F)OCC(F)(F)F)cc1 [Compound No. 4, 2-amino-9-[2-[bis(2,2,2-trifluoroethyl)-phosphonylmethoxy]ethyl]-6-p-methoxyphenylthiopurine]
- IC50 (Hepatitis B virus (HBV) [1]; [8]): 0.05 µM
- CC50 [2]: > 1000 µM
- Inhibitory rate against HBV-DNA synthesis (Hepatitis B virus (HBV) [3]; [9]): 95.2%

SMILES: CC(C)(C)C(=O)OCOP(=O)(COCCn1cnc2c(N)ncnc21)OCOC(=O)C(C)(C)C [Reference 1, dipivaloyloxymethyl ester of PMEA]
- IC50 (Hepatitis B virus (HBV) [1]; HB611, read-out: 50% inhibitory concentration against HBV-DNA synthesis): 18.8 µM
- CC50 [2]: 11 µM

SMILES: Nc1nc(N)c2ncn(CCOCP(=O)(O)O)c2n1 [PMDAP, 9-(2-phosphonylmethoxy)ethyl-2,6-diaminopurine]
- reported as being effective against HSV-1 [4]: effective
- reported as being effective against HSV-2 [5]: effective
- reported as being effective against HIV [6]: effective
- reported as being effective against HBV [7]: effective

SMILES: COc1cccc(Sc2nc(N)nc3c2ncn3CCOCP(=O)(OCC(F)(F)F)OCC(F)(F)F)c1 [Compound No. 3, 2-amino-9-[2-[bis(2,2,2-trifluoroethyl)-phosphonylmethoxy]ethyl]-6-m-methoxyphenylthiopurine]
- IC50 (Hepatitis B virus (HBV) [1]; [8]): 0.04 µM
- CC50 [2]: > 1000 µM

SMILES: Cc1ccc(Sc2nc(N)nc3c2ncn3CCOCP(=O)(OCC(F)(F)F)OCC(F)(F)F)cc1 [Reference 2, 9-[2-[bis(2,2,2-trifluoroethyl)phosphonylmethoxy]ethyl]-2-amino-6-p-toluylthiopurine]
- IC50 (Hepatitis B virus (HBV) [1]; [8]): 0.06 µM
- CC50 [2]: 108 µM

SMILES: Nc1ncnc2c1ncn2CCOCP(=O)(O)O [PMEA, 9-(2-phosphonylmethoxy) ethyladenine]
- Inhibitory rate against HBV-DNA synthesis (Hepatitis B virus (HBV) [3]; mouse serum 30 minutes after single oral dose of 1.0 g/kg): 35.5%
- reported as being effective against HSV-1 [4]: effective
- reported as being effective against HSV-2 [5]: effective
- reported as being effective against HIV [6]: effective
- reported as being effective against HBV [7]: effective
